Test results from patent publication US10532040B2, “Methods of treating cancer with herbacetin” (REGENTS OF THE UNIVERSITY OF MINNESOTA, priority 2011, dated 2020).

Target: T1, ODC (Homo sapiens, UniProt P11926)
T1 sequence (P11926 1-461): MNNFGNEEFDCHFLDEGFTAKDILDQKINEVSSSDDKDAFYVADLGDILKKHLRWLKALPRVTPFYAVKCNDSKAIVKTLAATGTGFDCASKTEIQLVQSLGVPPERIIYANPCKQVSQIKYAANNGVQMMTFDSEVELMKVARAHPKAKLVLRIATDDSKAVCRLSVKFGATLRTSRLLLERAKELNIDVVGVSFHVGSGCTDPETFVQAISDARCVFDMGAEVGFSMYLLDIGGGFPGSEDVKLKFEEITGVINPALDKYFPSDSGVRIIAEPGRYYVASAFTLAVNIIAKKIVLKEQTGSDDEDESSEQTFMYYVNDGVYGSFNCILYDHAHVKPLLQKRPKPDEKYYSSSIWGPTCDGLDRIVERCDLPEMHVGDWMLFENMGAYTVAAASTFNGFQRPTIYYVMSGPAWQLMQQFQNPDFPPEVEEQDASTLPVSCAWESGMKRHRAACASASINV
Experiment: ODC enzyme assay with recombinant ODC protein
Format: biochemical
Conditions: in vitro
Experimental: FIGS. 5A-5E. The effect of herbacetin on ODC activity was assessed in (a) DLD-1 and (b) HCT116 colon cancer cells. Cell lysates were incubated for 15 min with reaction buffer and different doses of herbacetin or DFMO and then incubated at 37° C. for 1 h. Herbacetin (c) and kaempferol (d) were modeled as allosteric inhibitors with the ODC crystal structure. (e) The effect of herbacetin or kaempferol on ODC activity was assessed using a human ODC recombinant protein. Each reaction was incubated at 37° C. for 1 h and ODC activity was measured as the release of CO2 from L-[1-C^14] ornithine. Data are represented as means±S.D. of triplicate values. The asterisk (*) indicates a significant difference (p<0.05) between herbacetin-treated samples compared to untreated or kaempferol-treated samples.
ODC activity was measured as the release of CO2 from L-[1-C^14] ornithine as previously described ([…]).

- ODC activity (release of CO2 from L-[1-C^14] ornithine): little effect
Compound: O=c1c(O)c(-c2ccc(O)cc2)oc2cc(O)cc(O)c12 [kaempferol, reference compound]
